The values below come from US12415799B2, “Indazole-fused cyclic compound” (Zhejiang Yangli Pharmaceutical Technology Co., Ltd., priority 2020, dated 2025).

Data set [1] is described as follows: In vivo pharmacokinetic study in mice. The arrangement: species or system female Balb/c mice. From the text:
Experimental purposes: To test the drug concentration in plasma of mice at different times after intravenous and intragastric administration of the test compound by LC/MS/MS using female Balb/c mice as the experimental animals. To study the pharmacokinetics of the test compound in mice in vivo and evaluate their pharmacokinetic characteristics.
Experimental animals: 4 healthy female Balb/c mice were divided into 2 groups according to the principle of similar body weight, with 2 mice in each group in IV group and 2 mice in each group in PO group. Animals were purchased from Shanghai Lingchang Biotechnology Co., Ltd.
Appropriate number of samples were weighed and prepared into 1 mg/mL solution respectively, and the mixture was stirred and ultrasonicated to reach a clear state, and the solvent was 15% HP-β-CD.
Administration: After fasting overnight, IV group was administered intravenously, and the dosage of the test compound was 5 mg/kg; PO group was administered intragastrically, and the dosage of the test compound was 10 mg/kg.
After the female Balb/c mice in the intravenous injection group were given the test compound respectively, 30 μL of blood was collected from the saphenous vein at 0.0833, 0.25, 0.5, 1, 2, 4, 8, and 24 hours, and placed in a commercialized anticoagulant tube added with EDTA-K2 in advance. After intragastric administration of the test compound, 30 μL of blood was collected from the saphenous vein at 0.25, 0.5, 1, 2, 4, 8, 12 and 24 hours, respectively, and placed in a commercialized anticoagulant tube added with EDTA-K2 in advance. After centrifugation (3,200 g, 4° C., 10 minutes), the plasma was collected, transferred to a pre-cooled centrifuge tube, quickly frozen in dry ice, and stored in a refrigerator at −60° C. or lower, until LC-MS/MS analysis. Animals were allowed to eat 4 hours after administration. LC/MS/MS method was used to determine the content of the test compound in the plasma of mice after intravenous and intragastric administration. The linear range of the method was 2.00 to 2000 nM.

The subject of data set [2] is rat uterus. The data set can be described thus: Uterine wet weight inhibition experiment in rat cubs. It counts as in vivo. The following applies: 18-day-old female rat pups, oral, three consecutive days; compounds 25 mg/kg, Ethinylestradiol 0.1 mg/kg. As for the experimental part:
The purpose of this experiment was to evaluate the effect of the compound of the present disclosure on uterine growth inhibition in 18 to 21-day-old female rat pups (provided by Beijing Vital River Laboratory Animal Technology Co., Ltd.). In this experiment, 18-day-old female rat pups were orally administered the compound of the present disclosure at a dose of 25 mg/kg for three consecutive days, and the control group was orally administered 0.1 mg/kg of Ethinylestradiol for three consecutive days, and the blank group was not given any drug except the corresponding solvent. Three days after the administration, the rats were sacrificed, and the weight of the rat uterus was weighed to observe the effect of the test drug on the growth inhibition of the rat uterus. Inhibition rate=100×[(VehicleEE−Cpd)/(VehicleEE−Vehicle)], VehicleEE was the wet weight of the rat uterus in the control group (administered 0.1 mg/kg of Ethinylestradiol orally); Cpd was the wet weight of the rat uterus in administration group; Vehicle was the wet weight of the rat uterus in the blank group.

[3] abbreviates: female, Balb/c, mouse, plasma, iv, i.v. 5 mg/kg.
The mark [4] stands for this setting: female, Balb/c, mouse, plasma, po, p.o. 10 mg/kg.

Molecules are shown by their SMILES.

For the molecule `FCCCN1CC[C@H](Nc2cnc(C3=C(CC(F)(F)F)CCCc4c3ccc3[nH]nc(F)c43)cn2)C1` [Compound 11A], in data set [1] (i.v. 5 mg/kg), the AUC0-last worked out at 5.27 µM·h; the Cl came to 30.2 mL/min/kg; the T1/2 is listed as 5.16 h; the distribution volume (Vdss) (usually a proportionality between amount in the body and measured concentration, not a real space) is on record as 11.1 L/kg. In data set [1] (p.o. 10 mg/kg), the AUC0-last worked out at 5.856 µM·h; the Cmax – broadly, the maximum level reached in the sampled fluid or tissue – stood at 779 nM; the T1/2 was determined as 4.72 h. In data set [1] (p.o. 10 mg/kg vs i.v. 5 mg/kg), the F % amounted to 55.4%. In data set [2], the Inhibition rate was 99.0%, the “Ratio of uterine wet weight/rat body weight” value is reported as 1.05 mg/g and the Uterine wet weight worked out at 49.725 mg.

For `FCCCN1CC(Nc2ccc(C3=C(CC(F)(F)F)CCCc4c3ccc3[nH]nc(F)c43)nc2)C1` [Compound 2], in data set [1] (setting [3]), the AUC(0-t) – broadly, exposure summed from dosing to a finite time, without extrapolation to infinity – stood at 8.47 µM·h; the clearance (in general, a measure of how efficiently the substance is removed, as volume per time) stood at 18.3 mL/min/kg; the half-life – broadly, the time needed for the level to fall by half in the phase considered – was 411 min. For the same molecule, the Vd in data set [1] (female, Balb/c, mouse, plasma, iv, i.v. 5 mg/kg, read-out: Vdss) was 10.6 L/kg. In addition, the bioavailability (commonly the share of a dose that reaches the circulation, judged against a reference dose that is usually intravenous) in data set [1] (female, Balb/c, mouse, plasma, oral, p.o. 10 mg/kg vs i.v. 5 mg/kg) was 71.8%. Further, in data set [1] (setting [4]), the area under the curve AUC(0-t) came out at 11.7 µM·h, the peak level (Cmax) was 937 nM and the half-life was 460 min. In data set [2], the Inhibition rate amounted to 95.8%, the “Ratio of uterine wet weight/rat body weight” value turned out to be 0.84 mg/g and the Uterine wet weight is reported as 52.34 mg.
